From article PMC7011792 (Journal of Enzyme Inhibition and Medicinal Chemistry, 2017) come the findings set out here.

Read-outs that look alike come from different tables or passages of the source.

Data set [1] concerns the target T1, BuChE (EC 3.1.1.8) from horse serum (Equus caballus, UniProt P81908).
T1 construct: purchased Sigma-Aldrich C0663; host or cells: equine serum
Nature of the data set: biochemical. Type of data set: biochemical. As to conditions: for IC50: BuChE from horse serum, mean ± SEM of three experiments; for selective index (selectivity on BuChE): selectivity on BuChE over AChE (eeAChE, eqBuChE). As for the experimental part:
(§1) AChE (EC 3.1.1.7, Type VI-S, from electric eel, C3389; from human, C1682) and BuChE (EC 3.1.1.8, from equine serum, C0663; from human, B4186), 5,5'-dithiobis (2-nitrobenzoic acid) (DTNB, D218200), acetylthiocholine iodide (ATC, A5751), and butyrylthiocholine iodide (BTC, B3253) were obtained from Sigma-Aldrich (St. Louis, MO).
(§2) The inhibitory effects of the synthesised compounds in this paper were evaluated according to our previously reported method. […] ATC/BTC iodide solution (0.075 M) was prepared in deionised water. […] The assay buffer was prepared as follows: potassium dihydrogen phosphate (1.36 g, 10 mmol) was dissolved in 100 ml of water. The pH of the solution was then adjusted to 8.0 ± 0.1 with KOH. Stock solutions of the test samples were dissolved in ethanol to give a final concentration of 10^−4 M when diluted to the final volume of 3.32 ml. For each compound, a dilution series of at least five different concentrations (normally 10^−5–10^−9 M) were prepared.
(§3) For measurement, a cuvette containing 3.0 ml of phosphate buffer, 100 µL of AChE or BuChE, 100 µL of DTNB, and 100 µL of the test compound solution were added in sequence. The reaction was initiated after adding 20 µL of ATC or BTC, and the solution was mixed immediately. […] For the reference value, 100 µL of water replaced the test compound solution. For the blank control, additionally 100 µL of water replaced the enzyme solution. The measurement for each concentration was assayed in triplicate. GraphPad Prism 5 was used for data processing. The inhibition curve was fitted by plotting percentage enzyme activity (100% for the reference) versus logarithm of test compound concentration. The IC50 values were calculated according to the curve, and the data were shown in mean ± SEM.
(§4) The inhibitory effects on ChEs of all the target compounds were determined according to Ellman’s method. AChE from electrophorus electricus (eeAChE) and BuChE from equine serum (eqBuChE) were used in the assays.

Data set [2] has as its target T2, AChE (EC 3.1.1.7) from electric eel (Electrophorus electricus, UniProt O42275).
T2 construct: purchased Sigma-Aldrich C3389
Description: biochemical. The following applies: for IC50: AChE from electric eel, mean ± SEM of three experiments; for Selectivity index (SI) = BuChE IC50/AChE IC50: eqBuChE IC50 / eeAChE IC50. As for the experimental part:
as §1, §2, §3, §4

The target of data set [3] is T3, Aβ1–42 (Homo sapiens, UniProt P05067).
T3 construct: aliquots of 2.0 µL of Aβ1–42 (AS-64129–05 Anaspec Inc.); purchased Anaspec Inc. AS-64129–05
T3 sequence (P05067 672-713): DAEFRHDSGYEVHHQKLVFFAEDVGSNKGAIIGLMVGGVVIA
Nature of the data set: Inhibition of self-induced Aβ1–42 aggregation (Thioflavin T assay). Type of data set: biochemical. The following applies: compound 25 μM, 24 h, read-out: Inhibitory rate on self-induced Aβ1-42 aggregation. As for the experimental part: Inhibitory effects of the compounds on self-induced Aβ1–42 aggregation were evaluated using a Thioflavin T (ThT)-(T3516, Sigma-Aldrich, St. Louis, MO) binding assay according to the previously reported method. […] The Aβ1–42 and the test sample solutions were incubated for 24 h at the room temperature.
The inhibitory rate of Aβ1–42 self-induced aggregation was calculated according to the following equation: (1-IFi/IFc) × 100%. IFi and IFc were the fluorescence intensities in the presence and absence of inhibitors, respectively, after subtracting the background fluorescence of the 5 mM Thioflavin T solution. Each measurement was repeated in triplicate. The inhibitory rate of the test compound was shown in mean ± SD.

The test system of data set [4] is ICR mice. As to conditions: for ALT (U/L) / AST (U/L): mice serum, n = 6. The procedure:
The activity of AST and ALT, two indicators of liver damage, was determined using corresponding assay kit (EF551 and EF550 for ALT, EH027, and EF548 for AST, Wako, Japan).
One hour after the collection of retrobulbar blood, mice were sacrificed and livers were harvested for morphological studies by using immunohistochemical method. Two 3 mm sections of each liver extending from the hilus to the margin of the left lateral lobe were isolated by Ultra-Thin Semiautomatic Microtome (Leica RM2245, Germany) and immediately placed in 10% buffered formaldehyde, fixed for two days, and embedded together in one paraffin block by using Paraffin Embedding Station (Leica EG1150H, Germany). Subsequently, 5 µm sections were prepared from these paraffin blocks. They were deparaffinated and stained with hematoxylin and eosin or by means of the periodic acid-Schiff procedure for glycogen.

Data set [5] concerns ICR mice. Description: Morris water maze test, scopolamine-induced cognitive impairment. The following applies: ICR mice.
Where [6] appears, read: 22 h after ig administration, 151.5 µmol/kg.
Where [7] appears, read: 36 h after ig administration, 151.5 µmol/kg.

T1 sequence (P81908 whole entry): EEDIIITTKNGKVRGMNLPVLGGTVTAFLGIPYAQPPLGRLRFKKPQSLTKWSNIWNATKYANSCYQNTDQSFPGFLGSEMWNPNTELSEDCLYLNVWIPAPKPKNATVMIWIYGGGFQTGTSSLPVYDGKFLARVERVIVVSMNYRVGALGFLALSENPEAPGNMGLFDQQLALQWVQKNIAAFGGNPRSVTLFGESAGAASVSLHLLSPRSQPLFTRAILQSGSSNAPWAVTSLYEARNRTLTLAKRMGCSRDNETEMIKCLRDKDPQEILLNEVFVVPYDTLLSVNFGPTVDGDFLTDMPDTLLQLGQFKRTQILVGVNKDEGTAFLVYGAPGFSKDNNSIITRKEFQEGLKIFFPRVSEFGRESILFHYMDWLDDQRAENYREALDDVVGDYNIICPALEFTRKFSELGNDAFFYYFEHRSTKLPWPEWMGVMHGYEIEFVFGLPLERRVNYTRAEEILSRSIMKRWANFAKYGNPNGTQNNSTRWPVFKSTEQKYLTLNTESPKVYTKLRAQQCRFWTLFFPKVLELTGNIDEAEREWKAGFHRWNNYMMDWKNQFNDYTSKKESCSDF
T2 sequence (O42275 24-633): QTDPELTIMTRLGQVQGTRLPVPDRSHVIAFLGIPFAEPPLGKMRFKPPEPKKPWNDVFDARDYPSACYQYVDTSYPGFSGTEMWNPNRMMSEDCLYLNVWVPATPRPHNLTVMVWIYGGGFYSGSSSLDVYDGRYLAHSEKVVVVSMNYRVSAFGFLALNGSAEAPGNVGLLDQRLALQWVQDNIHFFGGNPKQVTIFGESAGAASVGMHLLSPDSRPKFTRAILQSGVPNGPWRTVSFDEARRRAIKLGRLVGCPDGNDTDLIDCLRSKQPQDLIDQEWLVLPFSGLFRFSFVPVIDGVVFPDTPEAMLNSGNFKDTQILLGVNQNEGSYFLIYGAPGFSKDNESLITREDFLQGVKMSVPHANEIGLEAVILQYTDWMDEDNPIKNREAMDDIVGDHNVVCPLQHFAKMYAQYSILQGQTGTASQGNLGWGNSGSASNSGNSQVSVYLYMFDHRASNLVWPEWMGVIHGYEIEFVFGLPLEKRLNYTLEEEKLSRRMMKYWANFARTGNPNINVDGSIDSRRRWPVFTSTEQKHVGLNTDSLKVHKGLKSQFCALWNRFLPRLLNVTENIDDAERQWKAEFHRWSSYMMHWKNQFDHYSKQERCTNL

For `O=C(/C=C/c1ccc(F)cc1)NCCCCCCNc1c2c(nc3ccccc13)CCCC2` [Compound 24, (E)-3-(4-fluorophenyl)-N-(6-((1,2,3,4-tetrahydroacridin-9-yl)amino)hexyl)acrylamide], the IC50 – broadly, the concentration needed to halve the response being measured – in data set [1] came out at 65.9 ± 21.4 nM; in data set [2], 15.4 ± 3.3 nM. Moreover, in data set [2], the “Selectivity index (SI) = BuChE IC50/AChE IC50” value came to 4.3.
Taken in the same sequence, the figures for `Cc1ccccc1/C=C/C(=O)NCCCCCCNc1c2c(nc3ccccc13)CCCC2` [Compound 14, (E)-N-(6-((1,2,3,4-tetrahydroacridin-9-yl)amino)hexyl)-3-(o-tolyl)acrylamide] were 6 ± 1.5 nM, 36 ± 12.3 nM and 0.2.
The molecule `O=C(/C=C/c1ccc(Cl)c([N+](=O)[O-])c1)NCCCCCCNc1c2c(nc3ccccc13)CCCC2` [Compound 20, (E)-3-(4-chloro-3-nitrophenyl)-N-(6-((1,2,3,4-tetrahydroacridin-9-yl)amino)hexyl)acrylamide] displayed a half-maximal inhibitory concentration (IC50) in data set [1] of 11.1 ± 2.2 nM. Also, in data set [2], the IC50 came out at 6.2 ± 2 nM and the “Selectivity index (SI) = BuChE IC50/AChE IC50” value came to 1.8.
On to `O=C(/C=C/c1ccc(Br)cc1)NCCCCCCNc1c2c(nc3ccccc13)CCCC2` [Compound 28, (E)-3-(4-bromophenyl)-N-(6-((1,2,3,4-tetrahydroacridin-9-yl)amino)hexyl)acrylamide], for which the figures for the half-inhibitory concentration (IC50) in data set [1] and in data set [2] were 29.9 ± 1.8 nM and 19.1 ± 2 nM, respectively. For the same molecule, in data set [2], the “Selectivity index (SI) = BuChE IC50/AChE IC50” value was 1.6.
As to `Oc1ccc(/C=C/c2cc(O)cc(O)c2)cc1` [Resveratrol, reference compound], the inhibition at 25 µM in data set [3] was 30.4%.
On to `Nc1c2c(nc3ccccc13)CCCC2` [Tacrine, reference compound], for which the “ALT (U/L)” value in data set [4] (8 h after ig administration, 151.5 µmol/kg (tacrine 30 mg/kg, equimolar test compounds)) is on record as 38.0 ± 3.5 U/L; in data set [4] (setting [6]), 38.7 ± 5.2 U/L; in data set [4] (setting [7]), 40.9 ± 3.5 U/L. For the same molecule, the “AST (U/L)” value was 134.5 ± 9.9 U/L in data set [4] (8 h after ig administration, 151.5 µmol/kg); 125.8 ± 16.2 U/L in data set [4] (setting [6]); 138.7 ± 8.5 U/L in data set [4] (setting [7]). The “morphologic changes in liver” value in data set [4] (36 h after administration, HE staining, compared to control group) is “did not cause remarkable morphologic changes in liver”. In data set [5] (learning and training, Day 5, oral, plus scopolamine), the “Latency to target (second), Day 5” value worked out at 69.2 ± 11.0 s. For the same molecule, in data set [5] (learning and training, Day 6, oral, plus scopolamine), the “Latency to target (second), Day 6” value turned out to be 58.3 ± 7.9 s. Also, the “Latency to target (second), Day 7” value in data set [5] (learning and training, Day 7, oral, plus scopolamine) came out at 50.3 ± 6.3 s. In addition, the “Latency to target (second), Day 8” value in data set [5] (learning and training, Day 8, oral, plus scopolamine) worked out at 37.1 ± 5.1 s. Further, the “Latency to target (second), Day 9” value in data set [5] (learning and training, Day 9, oral, plus scopolamine) stood at 38.2 ± 2.6 s. The “Latency to Target” value in data set [5] (probe trial, oral administration plus scopolamine (1 mg/kg ip), mean ± SEM, n = 6) was 34.5 ± 1.3 s.
Consider `O=C(/C=C/c1ccccc1)NCCCCCCCCNc1c2c(nc3ccccc13)CCCC2` [Compound 13], for which half-maximal inhibition in data set [1] (IC50) was put at 7.8 ± 4.7 nM. In addition, in data set [2], the midpoint of inhibition, the IC50, lay at 22.8 ± 9.2 nM and the “Selectivity index (SI) = BuChE IC50/AChE IC50” value came to 0.3.
`O=C(/C=C/c1cccc([N+](=O)[O-])c1)NCCCCCCNc1c2c(nc3ccccc13)CCCC2` [Compound 18, (E)-3-(3-nitrophenyl)-N-(6-((1,2,3,4-tetrahydroacridin-9-yl)amino)hexyl)acrylamide] displayed an IC50 in data set [1] of 6.8 ± 0.6 nM. Further, in data set [2], the IC50 worked out at 3.6 ± 0.5 nM and the “Selectivity index (SI) = BuChE IC50/AChE IC50” value is 1.9.
`Cc1cccc(/C=C/C(=O)NCCCCCCNc2c3c(nc4ccccc24)CCCC3)c1` [Compound 15, (E)-N-(6-((1,2,3,4-tetrahydroacridin-9-yl)amino)hexyl)-3-(m-tolyl)acrylamide]: in data set [1], the half-maximal inhibitory concentration (IC50) was 37.3 ± 7.2 nM. Further, in data set [2], the IC50 turned out to be 53.1 ± 6.9 nM and the “Selectivity index (SI) = BuChE IC50/AChE IC50” value is 0.7.
Regarding `O=C(/C=C/c1ccccc1)NCCCNc1c2c(nc3ccccc13)CCCC2` [Compound 10], in data set [1], the IC50 was found to be 3.5 ± 0.4 nM and the “selective index (selectivity on BuChE)” value is 28.7. In data set [2], inhibition was half-maximal at 100 ± 5.2 nM (IC50) and the “Selectivity index (SI) = BuChE IC50/AChE IC50” value is given as 0.03.
Take `COc1cc(/C=C/C(=O)NCCCCCCNc2c3c(nc4ccccc24)CCCC3)cc(OC)c1OC` [Compound 32, (E)-N-(6-((1,2,3,4-tetrahydroacridin-9-yl)amino)hexyl)-3–(3,4,5-trimethoxyphenyl)acrylamide]: in data set [1], 3.4 ± 0.4 nM corresponded to half-maximal inhibition (IC50). In data set [2], the half-inhibitory concentration (IC50) amounted to 6.4 ± 2.2 nM and the “Selectivity index (SI) = BuChE IC50/AChE IC50” value was found to be 0.5.
Consider `O=C(/C=C/c1ccccc1)NCCNc1c2c(nc3ccccc13)CCCC2` [Compound 9], for which the 50% inhibitory concentration (IC50) in data set [1] turned out to be 69.1 ± 27.3 nM; in data set [2], 328 ± 122 nM. Further, the “Selectivity index (SI) = BuChE IC50/AChE IC50” value in data set [2] amounted to 0.2.
Take `O=C(C=Cc1ccccc1)NCCCCNc1c2c(nc3ccccc13)CCCC2` [Compound 11, N-(4-((1,2,3,4-tetrahydroacridin-9-yl)amino)butyl)cinnamamide]: in data set [1], the IC50 was determined as 2.9 ± 0.4 nM and the “selective index (selectivity on BuChE)” value stood at 71.17. In data set [2], half-maximal inhibition (IC50) was put at 209 ± 76 nM and the “Selectivity index (SI) = BuChE IC50/AChE IC50” value is listed as 0.01.
`O=C(/C=C/c1cccc(O)c1)NCCCCCCNc1c2c(nc3ccccc13)CCCC2` [Compound 33, (E)-3-(3-hydroxyphenyl)-N-(6-((1,2,3,4-tetrahydroacridin-9-yl)amino)hexyl)acrylamide] had an IC50 in data set [1] of 25.1 ± 6.5 nM. Moreover, in data set [2], the IC50 is 6.4 ± 2.1 nM and the “Selectivity index (SI) = BuChE IC50/AChE IC50” value is 3.9.
Take `O=C(/C=C/c1ccccc1[N+](=O)[O-])NCCCCCCNc1c2c(nc3ccccc13)CCCC2` [Compound 17, (E)-3-(2-nitrophenyl)-N-(6-((1,2,3,4-tetrahydroacridin-9-yl)amino)hexyl)acrylamide]: in data set [1], half-maximal inhibition (IC50) required 3.6 ± 0.3 nM. In data set [2], the IC50 came to 17.5 ± 3.7 nM and the “Selectivity index (SI) = BuChE IC50/AChE IC50” value was determined as 0.2.
Consider `O=C(/C=C/c1ccc(C(F)(F)F)cc1)NCCCCCCNc1c2c(nc3ccccc13)CCCC2` [Compound 23, (E)-N-(6-((1,2,3,4-tetrahydroacridin-9-yl)amino)hexyl)-3–(4-(trifluoromethyl)phenyl)acrylamide], for which the IC50 was 16.4 ± 1.8 nM in data set [1] and 8.1 ± 0.3 nM in data set [2]. Moreover, the “Selectivity index (SI) = BuChE IC50/AChE IC50” value in data set [2] is 2.0.
